Values quoted from earlier work, collected in patent publication US8933112B2, “Topical liquid to ameliorate pain and promote healing of burn-injured skin” (Memphaceuticals, LLC, priority 2012, dated 2015).

Experiments:
[1] = target: T1, 6-phosphofructo-1-kinase (PFK) (Oryctolagus cuniculus, UniProt P00511); details: independent of anti-calmodulin activity
T1 sequence (P00511 2-780 limits assumed): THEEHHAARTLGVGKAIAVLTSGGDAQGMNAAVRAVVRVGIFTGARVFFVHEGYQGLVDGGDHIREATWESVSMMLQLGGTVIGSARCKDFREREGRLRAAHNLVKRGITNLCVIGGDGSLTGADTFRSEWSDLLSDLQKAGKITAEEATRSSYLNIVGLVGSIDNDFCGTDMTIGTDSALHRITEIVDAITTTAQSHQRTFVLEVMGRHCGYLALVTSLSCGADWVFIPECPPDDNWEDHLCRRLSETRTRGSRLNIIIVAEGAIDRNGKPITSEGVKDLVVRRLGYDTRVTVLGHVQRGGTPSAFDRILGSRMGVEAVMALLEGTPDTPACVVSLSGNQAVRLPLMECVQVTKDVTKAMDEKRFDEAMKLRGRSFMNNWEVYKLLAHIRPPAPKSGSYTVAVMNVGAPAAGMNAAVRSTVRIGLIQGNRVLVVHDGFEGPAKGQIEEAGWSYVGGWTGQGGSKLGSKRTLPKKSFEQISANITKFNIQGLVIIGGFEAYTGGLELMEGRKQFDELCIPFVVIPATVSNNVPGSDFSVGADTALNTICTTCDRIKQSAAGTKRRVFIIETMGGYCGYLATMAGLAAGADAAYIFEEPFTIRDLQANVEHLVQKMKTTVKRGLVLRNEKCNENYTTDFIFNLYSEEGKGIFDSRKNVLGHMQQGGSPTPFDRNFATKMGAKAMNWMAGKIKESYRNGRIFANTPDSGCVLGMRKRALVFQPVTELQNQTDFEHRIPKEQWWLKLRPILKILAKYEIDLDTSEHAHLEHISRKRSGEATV

[2] = target: T2, nitric-oxide synthase in bovine brain (Bos taurus, UniProt A0A3Q1M6M2)
T2 construct: nitric-oxide synthase in bovine brain; host or cells: bovine brain
T2 sequence (A0A3Q1M6M2 1-1468): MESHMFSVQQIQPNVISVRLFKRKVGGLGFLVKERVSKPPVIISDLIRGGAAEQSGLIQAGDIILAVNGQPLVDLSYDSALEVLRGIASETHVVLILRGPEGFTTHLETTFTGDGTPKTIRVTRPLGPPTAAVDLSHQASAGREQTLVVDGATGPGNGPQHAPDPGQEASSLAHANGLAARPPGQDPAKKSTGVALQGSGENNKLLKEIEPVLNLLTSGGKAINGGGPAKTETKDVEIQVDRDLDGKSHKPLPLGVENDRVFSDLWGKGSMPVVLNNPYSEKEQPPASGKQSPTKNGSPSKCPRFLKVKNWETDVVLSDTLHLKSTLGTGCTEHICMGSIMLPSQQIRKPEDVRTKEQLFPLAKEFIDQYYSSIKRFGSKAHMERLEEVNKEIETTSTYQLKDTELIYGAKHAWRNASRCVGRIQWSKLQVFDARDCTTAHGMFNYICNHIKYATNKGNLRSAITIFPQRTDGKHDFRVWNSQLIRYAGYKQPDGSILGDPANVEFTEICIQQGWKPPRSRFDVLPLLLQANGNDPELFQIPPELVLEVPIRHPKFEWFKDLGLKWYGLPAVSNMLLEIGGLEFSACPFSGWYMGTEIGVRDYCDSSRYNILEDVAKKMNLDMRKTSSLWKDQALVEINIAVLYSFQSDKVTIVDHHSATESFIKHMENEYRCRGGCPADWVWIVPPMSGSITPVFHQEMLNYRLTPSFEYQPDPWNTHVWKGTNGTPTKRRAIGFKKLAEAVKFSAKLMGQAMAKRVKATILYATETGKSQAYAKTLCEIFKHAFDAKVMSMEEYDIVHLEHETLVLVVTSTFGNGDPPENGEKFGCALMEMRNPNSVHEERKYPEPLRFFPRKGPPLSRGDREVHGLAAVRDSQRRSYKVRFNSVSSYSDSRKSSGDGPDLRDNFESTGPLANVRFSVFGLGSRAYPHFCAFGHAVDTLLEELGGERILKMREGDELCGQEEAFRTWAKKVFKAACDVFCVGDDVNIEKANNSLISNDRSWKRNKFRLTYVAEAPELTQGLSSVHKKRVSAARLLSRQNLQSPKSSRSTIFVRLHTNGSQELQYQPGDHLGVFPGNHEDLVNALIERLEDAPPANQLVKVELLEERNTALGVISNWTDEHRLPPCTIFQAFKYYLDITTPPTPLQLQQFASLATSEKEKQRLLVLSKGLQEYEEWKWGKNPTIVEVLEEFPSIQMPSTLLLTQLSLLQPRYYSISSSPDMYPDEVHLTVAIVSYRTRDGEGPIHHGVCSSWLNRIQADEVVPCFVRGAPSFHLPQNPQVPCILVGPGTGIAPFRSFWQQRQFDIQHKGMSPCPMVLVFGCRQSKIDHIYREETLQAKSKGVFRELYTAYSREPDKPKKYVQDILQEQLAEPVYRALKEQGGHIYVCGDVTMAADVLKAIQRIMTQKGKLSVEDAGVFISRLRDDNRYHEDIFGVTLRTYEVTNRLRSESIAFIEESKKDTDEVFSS

[3] = test system: human T lymphocytes; details: by blocking Ca2+-sensitive K+ channels
[4] = test system: Ca^2+-dependent K^+ channels of human red blood cells, rat thymocytes, and Ehrlich ascites tumor cells; details: among tioconazole, miconazole, econazole, clotrimazole
[5] = test system: Lewis lung carcinoma cells and CT-26 colon adenocarcinoma cells

Question: For `Clc1ccccc1C(c1ccccc1)(c1ccccc1)n1ccnc1` [clotrimazole, 1-(o-chloro-α,α-diphenylbenzyl)imidazole], which “inhibition of PFK” value [1] is on record?
Answer: Its value is “directly inhibits”.

Question: And the “citrulline formation by nitric-oxide synthase” value ([2]; bovine brain)?
Answer: The value was “inhibited citrulline formation”.

Question: What about the “cytochrome-c reductase activity of nitric-oxide synthase” value ([2]; calmodulin-dependent fashion) of the same compound?
Answer: The value was “inhibited the cytochrome-c reductase activity”.

Question: And the “activation of human T lymphocytes” value [3]?
Answer: The value was “inhibits activation”.

Question: What about the “inhibition of Ca2+-dependent K+ channels” value [4] of the same compound?
Answer: The value was “most potent inhibitor”.

Question: What about the “levels of glucose 1,6-bisphosphate, fructose 1,6-bisphosphate, ATP, and cell viability” value [5] of the same compound?
Answer: Its value is “significant reduction”.
